Source: patent US20220288001A1, “CREATINE FOR IMMUNOTHERAPY” (The Regents of the University of California, priority 2019, published 2022)
“Also recorded” adds a separate entry of the source.

Columns and labels:
Type in all cases: in vivo, mouse
[1] = tested on: MC38 colon cancer; experiment: MC38 colon cancer model, creatine supplementation and anti-PD-1 treatment; details: MC38 (CrT-negative); creatine supplementation alone
Method: To establish solid tumors, mice were s.c. injected above the right flank with 1×10^6 B16-OVA or 3×10^5 MC38 cells. Before injection, cells in log phase of growth were harvested and suspended in phosphate-buffered saline (PBS), and 50 μl of cell suspension were injected subcutaneously above the flank. Tumor size was periodically measured with a digital Vernier caliper (Thermo Fisher Scientific). For creatine supplementation via i.p. injection, […] monohydrate (cat #C3630, Sigma-Aldrich) was dissolved in sterile PBS and i.p. injected to experimental animals daily at a dose of 10.5 mg per animal per injection. To study the combination effects of creatine supplementation and PD-1/PD-L1 blockade treatment, B6 mice were inoculated with MC38 tumor cells and monitored for tumor growth; experimental mice also received i.p. supplement of creatine, as well as i.p. injection of an anti-PD-1 blocking antibody (clone RMP1-14; 300 μg/mouse/injection, twice per week) or an isotype control antibody (clone 2A3; 300 μg/mouse/injection, twice per week), alone or in combination. Tumor-free mice were maintained for three months, then challenged with MC38 tumor cells again and monitored for tumor recurrence over another 6-month period.

[2] = tested on: B16-OVA melanoma; experiment: B16-OVA melanoma model in C57BL/6J WT mice, creatine supplementation; details: i.p. injection or dietary supplementation, both routes
Method: To establish solid tumors, mice were s.c. injected above the right flank with 1×10^6 B16-OVA or 3×10^5 MC38 cells. Before injection, cells in log phase of growth were harvested and suspended in phosphate-buffered saline (PBS), and 50 μl of cell suspension were injected subcutaneously above the flank. Tumor size was periodically measured with a digital Vernier caliper (Thermo Fisher Scientific). For creatine supplementation via i.p. injection, […] monohydrate (cat #C3630, Sigma-Aldrich) was dissolved in sterile PBS and i.p. injected to experimental animals daily at a dose of 10.5 mg per animal per injection. […] To study the effects of creatine supplementation on suppressing tumor growth, B6 mice were inoculated with B16-OVA tumor cells and monitored for tumor growth, with or without receiving creatine supplementation via i.p. injection or diet. […] To study the T cell-dependence of creatine supplementation induced anti-tumor effects, B6-OVA tumor growth was monitored and compared in B6 mice receiving i.p. injection of an anti-CD3 T cell depleting antibody (clone RMP1-14; 100 μg/mouse/injection, twice per week) or an isotype control antibody (clone LTF-2, 100 μg/mouse/injection, twice per week), with or without i.p. supplement of creatine.

[3] = tested on: B16-OVA tumors; experiment: B16-OVA tumors in immunodeficient NSG mice, creatine supplementation; details: i.p. creatine
[4] = Creatine quantification in serum after creatine supplementation; details: C57BL/6J WT mice, B16-OVA model; i.p. injection or dietary supplementation (0.4 g/kg body weight), both routes
Excerpt: A Creatine Assay Kit (Cat #ab65339, Abcam) was utilized to quantify creatine, both in vivo and in vitro, following the manufacturer's instructions. For the in vivo study, whole blood was collected (retro-orbital bleeding) from the experimental mice in a capillary tube, and the isolated serum was immediately used for the assay following the manufacturer's directions. For the in vitro study, cells were spun to remove culture media and suspended in cold PBS. Creatine was then quantified following the manufacturer's directions. The total amount of creatine detected was then normalized to cell numbers.
For creatine supplementation via i.p. injection, ceatine monohydrate (cat #C3630, Sigma-Aldrich) was dissolved in sterile PBS and i.p. injected to experimental animals daily at a dose of 10.5 mg per animal per injection.
For creatine supplementation via diet, experimental animals were fed a creatine-enriched isocaloric diet which is a customized formulation based on PicoLab Rodent Diet 20 enriched in creatine (3 g/Kg diet, cat #TD.170082, Envigo Teklad Diet). The diet was designed to reflect the safe daily dose of creatine recommended for enhanced athletic performance in humans (Mayo Clinic data). Non-treated mice (Ctrl) were fed a control diet prepared in a manner similar to that of the creatine-enriched diet.

For `CN(CC(=O)O)C(=N)N` [creatine], which tumor suppression [1] is on record?
The tumor suppression was “tumor suppression benefits”.

What about the tumor growth [2] of the same molecule?
Its tumor growth is “effectively suppressed tumor growth to a similar extent; also recorded: tumor suppression benefits”.

What about the tumor growth [3] of the same molecule?
The tumor growth was “could not be suppressed”.

And the “creatine concentrations in blood (serum)” value [4]?
Its value is “elevated creatine concentrations in blood to a similar level”.
